Assay results reported in publication PMC6321601 (Molecules, 2018).

Legend:
[1] = tested on: HepG-2 human hepatocellular carcinoma cells; assay: MTT assay, proliferation of HepG-2 cells; type: cell-based; conditions: mean of three independent experiments
Procedure: (§1) HepG-2 human hepatocellular carcinoma cells and L-O2 human normal liver cells were maintained in DMEM culture medium supplemented with 10% FBS at 37 °C under a humidified atmosphere with 5% CO2.
(§2) HepG-2 and L-O2 cells in logarithmic growth phase were seeded into a 96-well plate at 5 × 10^3/well/200 µL. After 12 h, compounds at different concentrations were added and incubated for 72 h at 37 °C, 5% CO2. Then, 20 µL MTT (5 mg/mL) was added into each well and incubated for 4 h. The supernatant was discarded, and the precipitate was dissolved with DMSO. The absorbance of the optical density (OD) at 570 nm was detected using a microplate reader and the IC50 was calculated with GraphPad Prism 5.

[2] = tested on: L-O2 human normal liver cells; assay: MTT assay, toxicity against L-O2 normal cells; type: cell-based; conditions: 72 h incubation, mean of three independent experiments
Procedure: as §1, §2

[3] = Homo sapiens, HepG2, 72 h incubation

| Compound | IC50 [1, 3] | IC50 ([2]; Homo sapiens) | IC50 ([1]; 72 h incubation) | IC50 [2] |
| --- | --- | --- | --- | --- |
| CC(=O)OC(C)(C)/C=C/C(=O)[C@](C)(O)C1[C@H](OC(=O)CCC(=O)OCCCCCCCCCCOc2no[n+]([O-])c2S(=O)(=O)c2ccccc2)C[C@@]2(C)C3CC=C4C(CC(O)C(=O)C4(C)C)[C@]3(C)C(=O)C[C@]12C (stereo partly drawn) [Compound 10i, 4-((10-((4-(((9R,13R,14S,16R)-17-((R,E)-6-Acetoxy-2-hydroxy-6-methyl-3-oxohept-4-en-2-yl)-2-hydroxy-4,4,9,13,14-pentamethyl-3,11-dioxo-2,3,4,7,8,9,10,11,12,13,14,15,16,17-tetradecahydro-1H-cyclopenta[a]phenanthren-16-yl)oxy)-4-oxobutanoyl)oxy)decyl)oxy)-3-(phenylsulfonyl)-1,2,5-oxadiazole 2-oxide] | 6.92 ± 0.75 µM | 3.27 ± 0.43 µM |  |  |
| CC(=O)OC(C)(C)/C=C/C(=O)[C@](C)(O)C1[C@H](OC(=O)CCC(=O)OCCCCCCCCCCCOc2no[n+]([O-])c2S(=O)(=O)c2ccccc2)C[C@@]2(C)C3CC=C4C(CC(O)C(=O)C4(C)C)[C@]3(C)C(=O)C[C@]12C (stereo partly drawn) [Compound 10j, 4-((11-((4-(((9R,13R,14S,16R)-17-((R,E)-6-Acetoxy-2-hydroxy-6-methyl-3-oxohept-4-en-2-yl)-2-hydroxy-4,4,9,13,14-pentamethyl-3,11-dioxo-2,3,4,7,8,9,10,11,12,13,14,15,16,17-tetradecahydro-1H-cyclopenta[a]phenanthren-16-yl)oxy)-4-oxobutanoyl)oxy)undecyl)oxy)-3-(phenylsulfonyl)-1,2,5-oxadiazole 2-oxide] | 10.3 ± 1.11 µM | 6.69 ± 3.95 µM |  |  |
| CC(=O)OC(C)(C)/C=C/C(=O)[C@](C)(O)C1[C@H](OC(=O)CCC(=O)OCCCCCCCCCCCCOc2no[n+]([O-])c2S(=O)(=O)c2ccccc2)C[C@@]2(C)C3CC=C4C(CC(O)C(=O)C4(C)C)[C@]3(C)C(=O)C[C@]12C (stereo partly drawn) [Compound 10k, 4-((12-((4-(((9R,13R,14S,16R)-17-((R,E)-6-Acetoxy-2-hydroxy-6-methyl-3-oxohept-4-en-2-yl)-2-hydroxy-4,4,9,13,14-pentamethyl-3,11-dioxo-2,3,4,7,8,9,10,11,12,13,14,15,16,17-tetradecahydro-1H-cyclopenta[a]phenanthren-16-yl)oxy)-4-oxobutanoyl)oxy)dodecyl)oxy)-3-(phenylsulfonyl)-1,2,5-oxadiazole 2-oxide] | > 20 µM | > 20 µM |  |  |
| CC(=O)OC(C)(C)/C=C/C(=O)[C@](C)(O)C1[C@H](OC(=O)CCC(=O)OC/C=C/COc2no[n+]([O-])c2S(=O)(=O)c2ccccc2)C[C@@]2(C)C3CC=C4C(CC(O)C(=O)C4(C)C)[C@]3(C)C(=O)C[C@]12C (stereo partly drawn) [Compound 10l, 4-(((E)-4-((4-(((9R,13R,14S,16R)-17-((R,E)-6-Acetoxy-2-hydroxy-6-methyl-3-oxohept-4-en-2-yl)-2-hydroxy-4,4,9,13,14-pentamethyl-3,11-dioxo-2,3,4,7,8,9,10,11,12,13,14,15,16,17-tetradecahydro-1H-cyclopenta[a]phenanthren-16-yl)oxy)-4-oxobutanoyl)oxy)but-2-en-1-yl)oxy)-3-(phenylsulfonyl)-1,2,5-oxadiazole 2-oxide] | 1.01 ± 0.4 µM | 2.72 ± 0.38 µM |  |  |
| CC(=O)OC(C)(C)/C=C/C(=O)[C@](C)(O)C1[C@H](OC(=O)CCC(=O)OCC#CCOc2no[n+]([O-])c2S(=O)(=O)c2ccccc2)C[C@@]2(C)C3CC=C4C(CC(O)C(=O)C4(C)C)[C@]3(C)C(=O)C[C@]12C (stereo partly drawn) [Compound 10m, 4-((4-((4-(((9R,13R,14S,16R)-17-((R,E)-6-Acetoxy-2-hydroxy-6-methyl-3-oxohept-4-en-2-yl)-2-hydroxy-4,4,9,13,14-pentamethyl-3,11-dioxo-2,3,4,7,8,9,10,11,12,13,14,15,16,17-tetradecahydro-1H-cyclopenta[a]phenanthren-16-yl)oxy)-4-oxobutanoyl)oxy)but-2-yn-1-yl)oxy)-3-(phenylsulfonyl)-1,2,5-oxadiazole 2-oxide] | 1.35 ± 0.1 µM | 2.94 ± 0.09 µM |  |  |
| CC(=O)OC(C)(C)/C=C/C(=O)[C@](C)(O)C1[C@H](OC(=O)CCC(=O)OCC(C)(C)COc2no[n+]([O-])c2S(=O)(=O)c2ccccc2)C[C@@]2(C)C3CC=C4C(CC(O)C(=O)C4(C)C)[C@]3(C)C(=O)C[C@]12C (stereo partly drawn) [Compound 10n, 4-(3-((4-(((9R,13R,14S,16R)-17-((R,E)-6-Acetoxy-2-hydroxy-6-methyl-3-oxohept-4-en-2-yl)-2-hydroxy-4,4,9,13,14-pentamethyl-3,11-dioxo-2,3,4,7,8,9,10,11,12,13,14,15,16,17-tetradecahydro-1H-cyclopenta[a]phenanthren-16-yl)oxy)-4-oxobutanoyl)oxy)-2,2-dimethylpropoxy)-3-(phenylsulfonyl)-1,2,5-oxadiazole 2-oxide] | 1.11 ± 0.22 µM | 3.31 ± 0.18 µM |  |  |
| CC(=O)OC(C)(C)/C=C/C(=O)[C@](C)(O)C1[C@H](OC(=O)CCC(=O)OCc2ccc(COc3no[n+]([O-])c3S(=O)(=O)c3ccccc3)cc2)C[C@@]2(C)C3CC=C4C(CC(O)C(=O)C4(C)C)[C@]3(C)C(=O)C[C@]12C (stereo partly drawn) [Compound 10o, 4-((4-(((4-(((9R,13R,14S,16R)-17-((R,E)-6-Acetoxy-2-hydroxy-6-methyl-3-oxohept-4-en-2-yl)-2-hydroxy-4,4,9,13,14-pentamethyl-3,11-dioxo-2,3,4,7,8,9,10,11,12,13,14,15,16,17-tetradecahydro-1H-cyclopenta[a]phenanthren-16-yl)oxy)-4-oxobutanoyl)oxy)methyl)benzyl)oxy)-3-(phenylsulfonyl)-1,2,5-oxadiazole 2-oxide] | 1.02 ± 0.28 µM | 3 ± 0.26 µM |  |  |
| CC(=O)OC(C)(C)/C=C/C(=O)[C@](C)(O)C1[C@H](OC(=O)CCC(=O)O)C[C@@]2(C)C3CC=C4C(C[C@H](O)C(=O)C4(C)C)[C@]3(C)C(=O)C[C@]12C (stereo partly drawn) [Compound 11, 4-(((2S,9R,13R,14S,16R)-17-((R,E)-6-Acetoxy-2-hydroxy-6-methyl-3-oxohept-4-en-2-yl)-2-hydroxy-4,4,9,13,14-pentamethyl-3,11-dioxo-2,3,4,7,8,9,10,11,12,13,14,15,16,17-tetradecahydro-1H-cyclopenta[a]phenanthren-16-yl)oxy)-4-oxobutanoic acid] | > 20 µM | > 20 µM |  |  |
| cucurbitacin B [Compound 1, reference compound] |  |  | 0.06 ± 0.02 µM | 0.019 ± 0.003 µM |
